From patent US11453667B2, “Pyridone-pyrimidine derivative acting as KRASG12C mutein inhibitor” (MEDSHINE DISCOVERY INC., priority 2018, dated 2022)

How the values were obtained:
[1] = test system: NCI-H358 human non-small cell lung cancer cells with KRAS G12C mutation; test: Cell experiment: anti-proliferative activity, CellTiter-Glo, NCI-H358; assay type: cell-based; conditions: 5 days culture
Procedure: (§1) This experiment is intended to verify that the compounds of the present invention have an inhibitory effect on the proliferation of NCI-H358 human non-small cell lung cancer cells with KRAS G12C mutation, MIA PaCa2 human pancreatic cancer cells with KRAS G12C mutation and wild-type A375 human malignant melanoma cells.
(§2) 40 μl of phosphate buffer was added to the peripheral wells of three 384-well microplates respectively, and 40 μl of cell suspension to be tested was added to the other wells of each plate respectively (plate 1: NCI-H358 cell suspension containing 500 NCI-H358 cells; plate 2: MIAPaCa2 cell suspension containing 300 MIAPaCa2 cells; plate 3: A375 cell suspension containing 300 A375 cells). The three cell plates were then placed in a carbon dioxide incubator and incubated overnight. Echo was used to perform a 3-fold gradient dilution of the compounds to be tested, and each compound was diluted with 10 concentration gradients (diluted from 50 μM to 0.003 μM), 100 nl of which was respectively added to the corresponding wells of the cell plates; after dosing, 40 μL of phosphate buffer was added to each well of rows A and P and columns 1 and 24, and then the cell plates were put back to the carbon dioxide incubator for culturing for 5 days. 20 μl of Promega CellTiter-Glo reagent per well was added to the cell plates, which was shaken at room temperature for 10 minutes in the dark to stabilize the luminescence signal. A PerkinElmer Envision multi-label analyzer was used for reading.
(§3) Data analysis: IC50 results were analyzed by GraphPad Prism 5.0 software […].

[2] = test system: wild-type A375 human malignant melanoma cells; test: Cell experiment: anti-proliferative activity, CellTiter-Glo, A375; assay type: cell-based; conditions: 5 days culture
Procedure: as §1, §2, §3

[3] = test system: MIA PaCa2 human pancreatic cancer cells with KRAS G12C mutation; test: Cell experiment: anti-proliferative activity, CellTiter-Glo, MIA PaCa2; assay type: cell-based; conditions: 5 days culture
Procedure: as §1, §2, §3

[4] = Liver microsome stability test, rat; assay type: in vitro ADME; conditions: rat liver microsomes, 0.5 mg protein/mL; read-out: rat T1/2
Procedure: (§4) To test the metabolic stability of the test article in mice, rats and human liver microsomes.
(§5) 1. 10 μL of the test or control article working solution was added to all plates (T0, T5, T10, T20, T30, T60, NCF60).
(§6) 2. Liver microsome solution was dispensed into a 96-well plate at 680 μL/well, and addition was performed on each plate at 80 μL/well, and the above-mentioned incubation plate was placed at 37° C. for pre-incubation for about 10 minutes.
(§7) 4. After the pre-incubation, the NADPH regeneration system working solution was dispensed into the 96-well plate at 90 μL/well, and addition was performed on each plate at 10 μL/well to start the reaction.
(§8) 5. Incubation was performed for an appropriate time (e.g., 5, 10, 20, 30 and 60 minutes).
(§9) 6. 300 μL of the stopping solution (refrigerated at 4° C., containing 100 ng/mL of tolbutamide and 100 ng/mL of labetalol) was respectively added to each sample well.
(§10) T1/2 and Clint(mic) were calculated by the following formula.
(§11) Ct is the concentration at time t, with t being the incubation time; C0 is the concentration at 0; Ke is the elimination rate constant; Clint(mic) is the intrinsic clearance rate of liver microsomes; and Clint(liver) is the hepatic intrinsic clearance rate. CLint(mic)=0.693/half-life/mg microsomal protein per mL (microsome concentration during incubation) CLint(liver)=CLint(mic)×mg microsomal protein/g liver weight×ratio of liver weight to body weight

[5] = Liver microsome stability test, mouse; assay type: in vitro ADME; conditions: mouse liver microsomes, 0.5 mg protein/mL; read-out: mouse T1/2
Procedure: as §4, §5, §6, §7, §8, §9, §10, §11

[6] = Liver microsome stability test, human; assay type: in vitro ADME; conditions: human liver microsomes, 0.5 mg protein/mL; read-out: Human T1/2
Procedure: as §4, §5, §6, §7, §8, §9, §10, §11

[7] = test system: human non-small cell lung cancer NCI-H358; test: In vivo drug efficacy test (2): subcutaneous xenograft tumor model; design: species or system BALB/c nude mice; conditions: 100 mg/kg (0-6 days) + 50 mg/kg (7-20 days)
Procedure: To evaluate the in vivo efficacy of the test compounds in a subcutaneous xenograft tumor model of human non-small cell lung cancer NCI-H358.
BALB/c nude mice, female, 6-8 weeks old, weighing 18-21 grams. A total of 100 were required. They were provided by Shanghai Lingchang Experimental Animal Co., Ltd ( ? ? ). NCI-H358 tumor cells were resuspended in PBS to prepare 0.1 mL (5×10^6) of cell suspension, which was inoculated subcutaneously on the right back of each mouse (5×10^6/mouse) to wait for tumor growth. When the average tumor volume reached about 150-200 mm^3, randomized grouping and administration were performed, and the administration dose was shown in Table 6. The diameter of the tumor was measured with vernier calipers twice a week. The formula for calculating the tumor volume is: V=0.5a×b^2, wherein a and b represent the long and short diameters of the tumor, respectively. The tumor suppressive effect of the compounds was evaluated by TGI (%). TGI (%) reflects the tumor growth inhibition rate. Calculation of TGI (%): TGI (%)=[(1−(average tumor volume at the end of administration in a treatment group−average tumor volume at the beginning of administration in the treatment group))/(average tumor volume at the end of treatment in the solvent control group−average tumor volume at the beginning of treatment in the solvent control group)]×100%.

[8] = Homo sapiens, MIA PaCa-2, 120 h

Row | SMILES | IC50 ([2]; Homo sapiens, A-375, 120 h) [µM] | IC50 ([1]; Homo sapiens, NCI-H358, 120 h) [µM] | IC50 [3, 8] [µM] | also measured
1 | C=CC(=O)N1CCN(c2nc(N3CC(N(CC)CC)C3)nc3c(=O)n(-c4c(N)c(Cl)cc(Cl)c4F)c(C(F)(F)F)cc23)CC1 (atropisomer, axis not shown) [Example 45] | – | – | – | IC50 [1]: 0.01 µM; IC50 [2]: 6.24 µM; IC50 [3]: 0.01 µM
2 | C=CC(=O)N1CCN(c2nc(N3CC(N(CC)CC)C3)nc3c(=O)n(-c4c(O)cccc4F)c(C(F)(F)F)cc23)CC1 [Example 9] | – | – | – | half-life [4]: 0.772 h; half-life [5]: > 2.42 h; half-life [6]: > 2.42 h
3 | C=CC(=O)N1CCN(c2nc(Oc3cnn(C)c3)nc3c(=O)n(-c4c(O)cccc4F)c(C(F)(F)F)cc23)CC1 [Example 15] | > 50 | 13.9 | – | –
4 | C=CC(=O)N1CCN(c2ncnc3c(=O)n(-c4c(F)cccc4OC(=O)N(C)C)c(C(F)(F)F)cc23)CC1 [Example 22] | 24.4 | – | – | IC50 ([1]; Homo sapiens, 120 h): 5.12 µM
5 | C=CC(=O)N1CCN(c2ncnc3c(=O)n(-c4c(C)cccc4O)c(C(F)(F)F)cc23)CC1 [Example 25] | – | – | 15.3 | –
6 | C=CC(=O)N1CCN(c2ncnc3c(=O)n(-c4c(C)ccc5c4cnn5C(C)=O)c(C(F)(F)F)cc23)CC1 [Example 27] | ≥ 50 | 20.8 | – | –
7 | C=CC(=O)N1CCN(c2nc(N3CC(N(CC)CC)C3)nc3c(=O)n(-c4c(C)ccc(N)c4C)c(C(F)(F)F)cc23)CC1 [Example 35] | – | – | – | IC50 [3]: 12 µM
8 | C=CC(=O)N1CCN(c2nc(N3CC(N(CC)CC)C3)nc3c(=O)n(-c4c(C)ccc(N)c4C)c(C(F)(F)F)cc23)CC1 [Example 36] | – | – | – | half-life [4]: > 2.42 h; half-life [5]: > 2.42 h; IC50 [3]: 1.11 µM; half-life [6]: > 2.42 h
9 | C=CC(=O)N1CCN(c2nc(N3CC(N(CC)CC)C3)nc3c(=O)n(-c4c(O)c(Cl)cc(Cl)c4F)c(C(F)(F)F)cc23)CC1 [Example 46] | > 50 | 1.95 | 1.79 | –
10 | C=CC(=O)N1CCN(c2ncnc3c(=O)n(-c4c(O)c(Cl)cc(Cl)c4F)c(C(F)(F)F)cc23)CC1 [Example 50] | > 50 | 5.49 | 3.9 | –
11 | C=CC(=O)N1CCN(c2ncnc3c(=O)n(-c4c(N)c(Cl)cc(Cl)c4F)c(C(F)(F)F)cc23)[C@H](C)C1 [Example 52] | – | – | – | IC50 [1]: 0.06 µM; IC50 [2]: 7.39 µM
12 | C=CC(=O)N1CCN(c2ncnc3c(=O)n(-c4c(N)c(Cl)cc(Cl)c4F)c(C(F)(F)F)cc23)[C@@H](C)C1 [Example 54] | – | – | – | IC50 [1]: 0.29 µM; IC50 [2]: 6.66 µM
13 | C=CC(=O)N1CCN(c2ncnc3c(=O)n(-c4c(O)ccc5ccccc45)c(C(F)(F)F)cc23)CC1 [Trifluoroacetate of example 55] | ≥ 50 | 4.26 | – | –

Further lines, with some results ahead:

Row | IC50 ([2]; Homo sapiens, A-375, 120 h) [µM] | IC50 ([1]; Homo sapiens, NCI-H358, 120 h) [µM] | IC50 [3, 8] [µM] | SMILES | also measured
14 | 9.02 | – | – | C=CC(=O)N1CCN(c2nc(N3CC(N(CC)CC)C3)nc3c(=O)n(-c4c(N)c(Cl)cc(Cl)c4F)c(C(F)(F)F)cc23)CC1 (atropisomer, axis not shown) [Example 44] | IC50 [1]: 3.67 µM; IC50 [3]: 2.97 µM
15 | 8.82 | – | – | C=CC(=O)N1CCN(c2ncnc3c(=O)n(-c4c(N)c(Cl)cc(Cl)c4F)c(C(F)(F)F)cc23)[C@H](C)C1 (atropisomer, axis not shown) [Example 51] | IC50 [1]: 2.04 µM
16 | 8.91 | – | – | C=CC(=O)N1CCN(c2ncnc3c(=O)n(-c4c(N)c(Cl)cc(Cl)c4F)c(C(F)(F)F)cc23)[C@@H](C)C1 (atropisomer, axis not shown) [Example 53] | IC50 [1]: 2.27 µM
17 | 29.3 | 0.45 | 0.37 | C=CC(=O)N1CCN(c2nc(N3CC(N(CC)CC)C3)nc3c(=O)n(-c4c(N)cccc4F)c(C(F)(F)F)cc23)CC1 (single isomer, unassigned) [Example 32] | half-life [4]: > 2.42 h; half-life [5]: > 2.42 h; half-life [6]: > 2.42 h
18 | 17.8 | 5.3 | – | C=CC(=O)N1CCN(c2ncnc3c(=O)n(-c4c(F)cccc4OC)c(C(F)(F)F)cc23)CC1 [Example 1] | –
19 | 39.9 | 14.6 | 12.7 | C=CC(=O)N1CCN(c2nc(N3CCOCC3)nc3c(=O)n(-c4c(O)cccc4F)c(C(F)(F)F)cc23)CC1 [Example 6] | –
20 | 42.2 | 24 | – | C=CC(=O)N1CCN(c2nc(OC)nc3c(=O)n(-c4c(O)cccc4F)c(C(F)(F)F)cc23)CC1 [Example 11] | –
21 | 9.89 | 14.2 | – | C=CC(=O)N1CCN(c2nc(OC3CCN(C)CC3)nc3c(=O)n(-c4c(O)cccc4F)c(C(F)(F)F)cc23)CC1 [Example 12] | –
22 | 2.86 | 7.18 | – | C=CC(=O)N1CC2CN(c3ncnc4c(=O)n(-c5c(O)cccc5F)c(C(F)(F)F)cc34)CC21 (centres unmarked) [Example 18] | –
23 | 32.6 | 13.3 | – | C=CC(=O)N1CCN(c2ncnc3c(=O)n(-c4c(C)ccc(N)c4C)c(C(F)(F)F)cc23)CC1 [Example 26] | –
24 | 36.2 | 9.93 | – | C=CC(=O)N1CCN(c2ncnc3c(=O)n(-c4c(C)ccc5[nH]ncc45)c(C(F)(F)F)cc23)CC1 [Example 28] | –
25 | 33.3 | 1.64 | 1.25 | C=CC(=O)N1CCN(c2ncnc3c(=O)n(-c4c(N)cccc4F)c(C(F)(F)F)cc23)CC1 [Example 31] | –
26 | 39.6 | 15.8 | – | C=CC(=O)N1CCN(c2nc(N3CC(N(CC)CC)C3)nc3c(=O)n(-c4c(N)cccc4F)c(C(F)(F)F)cc23)CC1 [Example 33] | –
27 | 19.7 | 1.05 | 1.44 | C=CC(=O)N1CCN(c2nc(N3CC(N(CC)CC)C3)nc3c(=O)n(-c4c(C)ccc5[nH]ncc45)c(C(F)(F)F)cc23)CC1 [Example 37] | –
28 | 12.2 | 0.15 | 0.16 | C=CC(=O)N1CCN(c2nc(N3CC(N(CC)CC)C3)nc3c(=O)n(-c4c(F)ccc(Cl)c4N)c(C(F)(F)F)cc23)CC1 [Example 41] | –
29 | 4.57 | 0.01 | 0.02 | C=CC(=O)N1CCN(c2nc(N3CC(N(CC)CC)C3)nc3c(=O)n(-c4c(N)ccc(Cl)c4F)c(C(F)(F)F)cc23)CC1 [Example 42] | Tumor volume (day 20) [7]: 191 mm^3; TGI ([7]; day 20): 95.51%
30 | 27.9 | 1 | 0.82 | C=CC(=O)N1CCN(c2ncnc3c(=O)n(-c4c(F)ccc(Cl)c4N)c(C(F)(F)F)cc23)CC1 [Example 47] | –
31 | 20.8 | 0.18 | 0.13 | C=CC(=O)N1CCN(c2ncnc3c(=O)n(-c4c(N)ccc(Cl)c4F)c(C(F)(F)F)cc23)CC1 [Example 48] | –
32 | 39.1 | 1.41 | 2.31 | C=CC(=O)N1CCN(c2nc(N3CC(N(CC)CC)C3)nc3c(=O)n(-c4c(O)cccc4F)c(C(F)(F)F)cc23)CC1 [Formate of example 8] | –
